Experimental data published in patent US20120255051A1, “HERBICIDE TOLERANT PLANTS” (priority 2009, published 2012).

System: Brassica plants comprising mutant AHAS alleles
Assay: Field trial, pre-planting treatment (0, 10, 20, 30 g a.i./ha), two locations in Canada: ERG, EST1, EST2, PPTOX, VIG1, VIG2, VIG3 scores
Assay type: in vivo, Brassica napus
Settings: ratio >1 = positive contribution
Source text: Tests were set up and conducted to asses the growth and performance of plants comprising AHAS full knock-out alleles, and to further analyze the correlation between the presence of full knockout and missense AHAS genes in Brassica plants and plant growth and herbicide tolerance of the Brassica plants in the field. To this end, the Brassica plants identified in Example 1 and 2 were backcrossed two times with an elite parent line, and subsequently selfed twice to obtain homozygous plants (BC2S2). Plants were grown as row plots in a split plot design with three replicates (main plots=herbicide treatments, subplots=genotypes) at two locations in Canada. Treatment pre-planting was carried out on the soil about two days before sowing with a dose of 0 (treatment A), 10 (treatment B), 20 (treatment C) or 30 (treatment D) g a.i./ha of thiencarbazone methyl. Herbicide tolerance was measured by scoring for different parameters. The parameter emergence (ERG) was scored at the cotyledon stage on a scale 1-9, where 1 means late emergence and 9 means early emergence. Establishment was scored 14 days after sowing (EST1) and 21 days after sowing (EST2). Scores were from 1 to 9, where 1 is the worst establishment (least plants that emerged), and 9 is the best establishment (most plants emerged). Phytotoxicity (PPTOX) was determined after establishment. Plants were evaluated on a scale of 1 to 9, where 1=completely yellowing, 5=50% of plant is yellow and 9=no yellowing. The vigor scores (see above) were determined at 1-2 leaf stage (VIG1), 7 days after VIG1 (VIG2) and 14 days after VIG1 (VIG3). The average values (Av) and standard deviations (SD) of the scores for the different parameters are represented in Table 7a-g.
Further, the contribution of the knock-out allele to herbicide tolerance conferred by the missense allele was calculated. First, the scores were corrected for a possible effect of the growth per se, independent of herbicide treatment. To this end, the scores for treatments B, C and D were divided by the scores for treatment A for the same genotype and for the same parameter (corrected herbicide tolerance scores). Next, the effect of the knock-out allele to these corrected herbicide tolerance scores obtained by the missense allele was calculated. Therefore, the corrected herbicide tolerance scores for the missense—knock-out allele combination was divided by the corrected herbicide tolerance scores for the missense allele—wild-type combination. In case the knock-out allele has no effect on herbicide tolerance conferred by the missense allele, this ratio should be 1. In case the knock-out allele positively contributes to the herbicide tolerance conferred by the missense allele, this ratio should be higher than 1. The results for the contribution of the knock-out allele to herbicide tolerance conferred by the missense allele as calculated above are shown in table 8.

[1] = Location A, treatment B 10 g a.i./ha pre-planting
[2] = Location A, treatment C 20 g a.i./ha pre-planting
[3] = Location A, treatment D 30 g a.i./ha pre-planting
[4] = Location B, treatment B 10 g a.i./ha pre-planting
[5] = Location B, treatment C 20 g a.i./ha pre-planting
[6] = Location B, treatment D 30 g a.i./ha pre-planting

COC(=O)c1csc(C)c1S(=O)(=O)NC(=O)n1nc(OC)n(C)c1=O [thiencarbazone-methyl, methyl 4-[(4,5-dihydro-3-methoxy-4-methyl-5-oxo-1H-1,2,4-triazol-1-yl)carbonylsulfamoyl]-5-methylthiophene-3-carboxylate]
relative contribution of HETO112 (AHAS1 KO) to herbicide tolerance conferred by HETO111 (AHAS3 missense): VIG2 [1]: 1.05 | relative contribution of HETO112 (AHAS1 KO) to herbicide tolerance conferred by HETO111 (AHAS3 missense): VIG3 [1]: 1.14 | relative contribution of HETO104 (AHAS3 KO) to herbicide tolerance conferred by HETO108 (AHAS1 missense): ERG [2]: 0.77 | relative contribution of HETO104 (AHAS3 KO) to herbicide tolerance conferred by HETO108 (AHAS1 missense): EST1 [2]: 0.77 | relative contribution of HETO104 (AHAS3 KO) to herbicide tolerance conferred by HETO108 (AHAS1 missense): EST2 [2]: 0.87 | relative contribution of HETO104 (AHAS3 KO) to herbicide tolerance conferred by HETO108 (AHAS1 missense): PPTOX [2]: 1.03 | relative contribution of HETO104 (AHAS3 KO) to herbicide tolerance conferred by HETO108 (AHAS1 missense): VIG1 [2]: 0.88 | relative contribution of HETO104 (AHAS3 KO) to herbicide tolerance conferred by HETO108 (AHAS1 missense): VIG2 [2]: 0.90 | relative contribution of HETO104 (AHAS3 KO) to herbicide tolerance conferred by HETO108 (AHAS1 missense): VIG3 [2]: 0.91 | relative contribution of HETO112 (AHAS1 KO) to herbicide tolerance conferred by HETO111 (AHAS3 missense): ERG [2]: 1.20 | relative contribution of HETO112 (AHAS1 KO) to herbicide tolerance conferred by HETO111 (AHAS3 missense): EST1 [2]: 1.19 | relative contribution of HETO112 (AHAS1 KO) to herbicide tolerance conferred by HETO111 (AHAS3 missense): EST2 [2]: 1.19 | relative contribution of HETO112 (AHAS1 KO) to herbicide tolerance conferred by HETO111 (AHAS3 missense): PPTOX [2]: 1.13 | relative contribution of HETO112 (AHAS1 KO) to herbicide tolerance conferred by HETO111 (AHAS3 missense): VIG1 [2]: 1.11 | relative contribution of HETO112 (AHAS1 KO) to herbicide tolerance conferred by HETO111 (AHAS3 missense): VIG2 [2]: 1.00 | relative contribution of HETO112 (AHAS1 KO) to herbicide tolerance conferred by HETO111 (AHAS3 missense): VIG3 [2]: 1.05 | relative contribution of HETO104 (AHAS3 KO) to herbicide tolerance conferred by HETO108 (AHAS1 missense): ERG [3]: 1.03 | relative contribution of HETO104 (AHAS3 KO) to herbicide tolerance conferred by HETO108 (AHAS1 missense): EST1 [3]: 1.03 | relative contribution of HETO104 (AHAS3 KO) to herbicide tolerance conferred by HETO108 (AHAS1 missense): EST2 [3]: 0.94 | relative contribution of HETO104 (AHAS3 KO) to herbicide tolerance conferred by HETO108 (AHAS1 missense): PPTOX [3]: 0.90 | relative contribution of HETO104 (AHAS3 KO) to herbicide tolerance conferred by HETO108 (AHAS1 missense): VIG1 [3]: 0.94 | relative contribution of HETO104 (AHAS3 KO) to herbicide tolerance conferred by HETO108 (AHAS1 missense): VIG2 [3]: 0.89 | relative contribution of HETO104 (AHAS3 KO) to herbicide tolerance conferred by HETO108 (AHAS1 missense): VIG3 [3]: 0.95 | relative contribution of HETO112 (AHAS1 KO) to herbicide tolerance conferred by HETO111 (AHAS3 missense): ERG [3]: 1.28 | relative contribution of HETO112 (AHAS1 KO) to herbicide tolerance conferred by HETO111 (AHAS3 missense): EST1 [3]: 1.36 | relative contribution of HETO112 (AHAS1 KO) to herbicide tolerance conferred by HETO111 (AHAS3 missense): EST2 [3]: 1.18 | relative contribution of HETO112 (AHAS1 KO) to herbicide tolerance conferred by HETO111 (AHAS3 missense): PPTOX [3]: 1.23 | relative contribution of HETO112 (AHAS1 KO) to herbicide tolerance conferred by HETO111 (AHAS3 missense): VIG1 [3]: 1.18 | relative contribution of HETO112 (AHAS1 KO) to herbicide tolerance conferred by HETO111 (AHAS3 missense): VIG2 [3]: 1.25 | relative contribution of HETO112 (AHAS1 KO) to herbicide tolerance conferred by HETO111 (AHAS3 missense): VIG3 [3]: 1.21 | relative contribution of HETO104 (AHAS3 KO) to herbicide tolerance conferred by HETO108 (AHAS1 missense): ERG [4]: 0.92 | relative contribution of HETO104 (AHAS3 KO) to herbicide tolerance conferred by HETO108 (AHAS1 missense): EST1 [4]: 1.07 | relative contribution of HETO104 (AHAS3 KO) to herbicide tolerance conferred by HETO108 (AHAS1 missense): EST2 [4]: 0.95 | relative contribution of HETO104 (AHAS3 KO) to herbicide tolerance conferred by HETO108 (AHAS1 missense): PPTOX [4]: 0.78 | relative contribution of HETO104 (AHAS3 KO) to herbicide tolerance conferred by HETO108 (AHAS1 missense): VIG1 [4]: 0.95 | relative contribution of HETO104 (AHAS3 KO) to herbicide tolerance conferred by HETO108 (AHAS1 missense): VIG2 [4]: 1.08 | relative contribution of HETO104 (AHAS3 KO) to herbicide tolerance conferred by HETO108 (AHAS1 missense): VIG3 [4]: 1.19 | relative contribution of HETO112 (AHAS1 KO) to herbicide tolerance conferred by HETO111 (AHAS3 missense): ERG [4]: 0.99 | relative contribution of HETO112 (AHAS1 KO) to herbicide tolerance conferred by HETO111 (AHAS3 missense): EST1 [4]: 1.00 | relative contribution of HETO112 (AHAS1 KO) to herbicide tolerance conferred by HETO111 (AHAS3 missense): EST2 [4]: 1.06 | relative contribution of HETO112 (AHAS1 KO) to herbicide tolerance conferred by HETO111 (AHAS3 missense): PPTOX [4]: 0.84 | relative contribution of HETO112 (AHAS1 KO) to herbicide tolerance conferred by HETO111 (AHAS3 missense): VIG1 [4]: 0.89 | relative contribution of HETO112 (AHAS1 KO) to herbicide tolerance conferred by HETO111 (AHAS3 missense): VIG2 [4]: 0.95 | relative contribution of HETO112 (AHAS1 KO) to herbicide tolerance conferred by HETO111 (AHAS3 missense): VIG3 [4]: 1.04 | relative contribution of HETO104 (AHAS3 KO) to herbicide tolerance conferred by HETO108 (AHAS1 missense): ERG [5]: 1.15 | relative contribution of HETO104 (AHAS3 KO) to herbicide tolerance conferred by HETO108 (AHAS1 missense): EST1 [5]: 1.07 | relative contribution of HETO104 (AHAS3 KO) to herbicide tolerance conferred by HETO108 (AHAS1 missense): EST2 [5]: 1.02 | relative contribution of HETO104 (AHAS3 KO) to herbicide tolerance conferred by HETO108 (AHAS1 missense): PPTOX [5]: 1.28 | relative contribution of HETO104 (AHAS3 KO) to herbicide tolerance conferred by HETO108 (AHAS1 missense): VIG1 [5]: 1.22 | relative contribution of HETO104 (AHAS3 KO) to herbicide tolerance conferred by HETO108 (AHAS1 missense): VIG2 [5]: 1.15 | relative contribution of HETO104 (AHAS3 KO) to herbicide tolerance conferred by HETO108 (AHAS1 missense): VIG3 [5]: 1.25 | relative contribution of HETO112 (AHAS1 KO) to herbicide tolerance conferred by HETO111 (AHAS3 missense): ERG [5]: 0.92 | relative contribution of HETO112 (AHAS1 KO) to herbicide tolerance conferred by HETO111 (AHAS3 missense): EST1 [5]: 1.13 | relative contribution of HETO112 (AHAS1 KO) to herbicide tolerance conferred by HETO111 (AHAS3 missense): EST2 [5]: 1.07 | relative contribution of HETO112 (AHAS1 KO) to herbicide tolerance conferred by HETO111 (AHAS3 missense): PPTOX [5]: 0.88 | relative contribution of HETO112 (AHAS1 KO) to herbicide tolerance conferred by HETO111 (AHAS3 missense): VIG1 [5]: 0.93 | relative contribution of HETO112 (AHAS1 KO) to herbicide tolerance conferred by HETO111 (AHAS3 missense): VIG2 [5]: 0.94 | relative contribution of HETO112 (AHAS1 KO) to herbicide tolerance conferred by HETO111 (AHAS3 missense): VIG3 [5]: 0.98 | relative contribution of HETO104 (AHAS3 KO) to herbicide tolerance conferred by HETO108 (AHAS1 missense): ERG [6]: 0.93 | relative contribution of HETO104 (AHAS3 KO) to herbicide tolerance conferred by HETO108 (AHAS1 missense): EST1 [6]: 1.00
